Assay results published in paper PMC6838142, “Nano-Antagonist Alleviates Inflammation and Allows for MRI of Atherosclerosis” (Nanotheranostics, 2019).

Key:
[1] = system: BMDMs from CCR2-knockout mice; experiment: Actin polymerization in BMDMs from CCR2-knockout mice; format: cell-based, mouse
Protocol: BMDMs were seeded and cultured on #1 glass coverslips in the presence or absence of 10 μM CCTV or VTCC for 6 h. Next, cells were washed with PBS and recombinant mouse CCL2 was added to a final concentration of 500 nM. Then, cells were incubated for varying times (indicated in Figure 2G), after which they were immediately placed on ice and washed 3 times with cold PBS. Actin polymerization was then visualized following staining with phalloidin Alexa Fluor 633, according to the manufacturer's instructions.

RAW cells = experiment: Flow cytometry competition with excess free peptide; format: cell-based, mouse; settings: excess (1 mM) free peptide
Description: Figure 1 Screening identifies CCTV as an anti-inflammatory nanoparticle with high affinity for CC chemokine receptor 2. A) A screening of a small library of nanoparticles in lipopolysaccharide (LPS)-stimulated macrophage reporter cells (RAW-Blue) identified CCTV, which downregulates nuclear factor-kappa B (NF-κB) activity. Each point on the plot represents a relative activity of NF-κB (X-coordinate) and corresponding nanoparticle content per mg of cell protein (Y-coordinate) calculated from nanoparticle fluorescence. […] Dexamethasone (Dex) is an NF-κB inhibitor and was used as a positive control. Vehicle-treated and unstained (US) cells served as a negative control. B) CCTV binding to the cell surface was validated in RAW cells using fluorescence microscopy. The cells were stained at 4 °C or room temperature for 30 min with CCTV or vehicle nanoparticles (sudo-colored green). […] E) The Basic Local Alignment Search Tool (BLAST) analysis determined that CCTV peptide sequence repeats in mouse and human CC chemokine receptor family. […]
For a targeted nanotherapy to be effective, the nanoparticles must have affinity to a specific cell type, usually determined by cell surface binding. […] Thus, we used the mouse macrophage reporter cell line RAW-Blue that allowed for monitoring activity of Nuclear Factor-kappa B (NF-kB) and also enabled In vitro quantitation of nanoparticle binding to the cell surface. […]

recombinant CCR2 protein = experiment: Competition with CCL2 binding to immobilized CCR2; settings: free peptide 1 mM in dimethylformamide, 1 h room temperature, recombinant human CCL2; OD 450 nm; three independent experiments
Protocol: A sandwich-type plate-based immunoassay was developed in-house to study CCR2 receptor binding. Black opaque plates (for fluorescence studies) or clear high protein binding plates (for absorbance studies) were coated with recombinant CCR2 protein at 2 µg/mL in PBS overnight at 4 °C. Plates were washed 5 times with PBS and treated as follows: for nanoparticles binding, varying concentrations of fluorescent nanoparticles or vehicle control (see above) in PBS were added to the opaque plates and incubated for 4 h at room temperature. For peptide competition/binding studies, recombinant human CCL2 was added in clear plates at varying concentrations in PBS simultaneously with a large excess of peptides (1 mM final concentration, dissolved in dimethylformamide) and incubated for 1 h at room temperature. All plates were washed 5 times with PBS and fluorescence in opaque plates was read at 550 nm excitation and 620 nm emissions. […] Clear plates were washed and incubated with 0.1 µg/mL streptavidin-HRP. Finally, clear plates were washed and incubated with SigmaFast OPD reagent in the presence of hydrogen peroxide-urea, as per the manufacturer's instructions. After 30 min incubation period at 37 °C, the plates were read at 450 nm on a multiwell plate reader as described above. Fluorescence emission values and OD at 450 nm were plotted against concentration using a 4-parametric fit.

[2] = Dynamic light scattering of nanoparticles; format: physicochemical; settings: Malvern Zetasizer Nano S, listed as C3
Protocol: Lipid-peptide conjugates were synthesized from either DSPE-PEG-CO2H or DSPE-PEG-MAL using peptides derived using SVM prediction platform and listed in Supplementary Table S2. The peptides were conjugated to either the N-terminus or via sulfhydryl groups as depicted in Figure 1E. Lipid films from both PEGylated derivatives were prepared by evaporation under nitrogen gas, from 1 µM of lipid solution in chloroform. Tetrapeptides were custom-synthesized by Genscript. 5 µmol of peptide solutions in water:dimethylformamide (1:1) were prepared via a brief bath sonication. […] PEGylated lipids prepared above were sonicated (10 min, 300 W, room temperature) in 5 mL of MES (pH 6, 100 mM) for DSPE-PEG-CO2H and in 5 mL of HEPES buffered saline [HBS] (pH 7.2, 100 mM, 154 mM NaCl) for DSPE-PEG-MAL. Next, DSPE-PEG-CO2H was activated by the addition of 2 mg of EDC (20 mg/mL in water) and 5 mg of sulfo-NHS (10 mg/mL in water). This was sonicated at 15 W for 10 min in a temperature controlled bath at 30 °C. Then, peptide solutions/suspensions were added to the resulting DSPE-PEG-NHS or previously prepared DSPE-PEG-MAL and stirred at room temperature for 4 h. The reaction with DSPE-PEG-NHS was quenched by the addition of 100 µL of 0.5 M of NH2OH in HBS, plus 1 mM EDTA. The reaction with DSPE-PEG-MAL was quenched by the addition of 7 µL of 2-mercaptoethanol. The solution was freezed at -80 °C and lyophilized. Next, lipid-peptide conjugates were extracted with chloroform (3 x 2 mL) and centrifuged at 4000 g x 5 min. Combined extract supernatants were evaporated under N2 gas and sonicated (10 min, 100 W) in 0.5-1 mL of water at room temperature. This raw product was purified by size […] chromatography as follows. Millipore Vantage column (10 x 500 mm) was packed with Sepharose 4B in deionized water under flow rate of 0.5 mL/min. Next, 0.5 mL of raw nanoparticle preparation was injected into the column and 0.5 mL fractions were collected at 0.5 mL/min simultaneously with UV detection at 190, 214, 250 and 280 nm using the Bio Rad DuoFlow system equipped with BioLogic QuadTec UV/Vis detector. See Supplementary Figure S2 for representative chromatograms. Combined fractions 15-31 were frozen and lyophilized. Particles used in signalling In vitro work were prepared by reconstitution of lyophilizates in PBS or HBS buffer via sonication. Particles used in reporter, flow cytometry and microscopy experiments were prepared by addition of 1% (by weight) of Rhodamine-PE in ethanol followed by reconstitution as described above. Particles used in magnetic resonance imaging (MRI) and time-resolved fluorescence (TRF) assays were prepared by addition of 10-20% (by weight) of gadolinium or europium chelate-lipids followed by reconstitution as above. Gadolinium-DTPA (18:0 PE-DTPA) was obtained from Avanti Polar Lipids and europium cryptate-NHS was obtained from Aat Bioquest (Supplementary Table S1). Europium cryptate-NHS was further conjugated to phosphatidylethanolamine (PE) to obtain Eu-cryptate-PE according to published and well established protocols. To confirm peptide conjugation, the powder was reconstituted in 1 mL of chloroform and analyzed with TLC (eluent chloroform:methanol:water 65:25:4) detecting with Molybdenum blue (Supplementary Figure S3A) or Dragendorff reagent (Supplementary Figure S3B). Nanoparticles were characterized by dynamic light scattering using Malvern Zetasizer Nano S (Supplementary Table S3). The presence of the peptide bond (N-H) and aliphatic C-H and C-C stretches (lipids) was confirmed by infrared (IR) spectroscopy. Nanoparticles were isolated as a homogeneous population (peak) in gel-filtration (see above) and were used without additional purification.

[3] = system: bone marrow derived monocytes, CCL2-induced migration; experiment: CCL2-induced chemotaxis assay; format: cell-based, mouse; settings: pre-treated BMDMs; 100 nM recombinant mouse CCL2, 12 h; nanoparticles
Protocol: Chemotaxis assays were performed using IBIDI µ-Slides as per the manufacturer's instructions and the recently published guide detailing the protocol. […] Cells were allowed to attach for 3 h at 37 °C, washed with 0.2 mL warm cell culture medium using a pipette tip inserted into µ-channel port, following which 100 nM recombinant mouse CCL2 protein was added as a chemoattractant (or omitted in control slides) to the one of side reservoirs. Cell movement was recorded for a duration of 12 h via phase video-microscopy in a stage-top humidified incubator at 37 °C and 5% CO2 atmosphere. Analysis was performed using the ImageJ IBIDI tracking tool, available free of charge at https://ibidi.com.

[4] = system: F4/80-positive plaque macrophages; experiment: Immunohistochemistry / plaque macrophage co-staining; format: in vivo, mouse; settings: rhodamine signal, 24 h after injection
Protocol: Twenty-four hours after nanoparticle injection (see above), mice were euthanized and abdominal aortas were isolated and embedded in Optimal Cutting Temperature compound. After cryotome-sectioning, resulting in 20-30 slides per mouse, 15 slides were sent to Ohio State laser capture microdissection core lab for capture and analysis. The rest of the slides were processed as follows: after fixation in methanol:acetone 50:50 at -20 °C, slides were hydrated in PBS, blocked for 30 min in fish serum (Aqua Block) and stained for 1 h with primary antibodies against F4/80 followed washing and staining with HRP-conjugated secondary antibody for 30 min. DAB peroxidase kit was then used as per manufacturer's instructions followed by mounting. DAB and antibody staining (but not wash steps) was omitted in slides designated for nanoparticle fluorescence visualization. Nanoparticles fluorescence was visualized with Zeiss 510 LSM-meta confocal microscope and 20x objective. DAB F4/80 staining was visualized with Nikon FN1 microscope and same power objective.

## CCL2: recombinant mouse CCL2/MCP-1 protein, natural CCR2 ligand
[1]
  actin polymerization in CCR2-knockout BMDMs: neither nanoparticles nor CCL2 are able to induce polymerization

## CCTV [free CCTV peptide, free (unconjugated) CCTV tetrapeptide]
RAW cells
  reduction of CCTV nanoparticle staining by free peptide: did not show appreciable reduction in CCTV staining in RAW cells
Recombinant CCR2 protein
  competition with CCL2 binding to CCR2: insignificantly competed with receptor binding of natural CCR2 ligand

## VTCC
[2]
  Mean Polydispersity Index (PDI): 0.148
[2]; hydrodynamic diameter
  Size (Mean Z average): 167 nm
[3]
  CCL2-induced monocyte migration: not seen with VTCC
[4]
  co-staining with F4/80 in plaque: not VTCC rhodamine signal
